Measurements as given in patent US20220267390A1, “MPS MODIFIED PEPTIDES AND USE THEREOF” (The Regents of the University of California, priority 2019, published 2022).
Where a SMILES comes first, the peptide text is derived from it. [ ]: non-standard residue; d: D form.

Legend:
[1] = tested on: IPF fibroblast cells; assay: cells; assay type: cell-based, human
Method: (§1) FIG. 14: Comparison of MPS-12042 (SEQ ID NO: 45) versus know tyrosine kinase inhibitor (TKLs) on the treatment of IPF fibroblast cells. Both normal and IPF lung fibroblast cells were treated with various drugs. After 72 hours, cells were subjected to MTT assays and IC50 for each drug was determined.
Human primary fibroblast cells were obtained from airway tissues provided from the UC Davis Medical Hospital (Sacramento, Calif.) with consent. The protocol for human tissue procurement and usage were periodically reviewed and approved by the University Human Subject Research Review Committee. Primary fibroblast cell lines, IPF-1 and IPF-2 cells, were established from IPF patients. Cells were obtained from lung biopsies and the diagnosis of IPF was supported by patient history, physical examination, pulmonary function tests, and typical high-resolution chest computed tomography findings of IPF. […] All patients fulfilled the criteria for the diagnosis of IPF as established by the American Thoracic Society and European Respiratory Society. Non-fibrotic primary control adult human lung fibroblast lines, Normal-1 and Normal-2 cells were used. These lines were established from normal lung tissue or histologically normal lung tissue adjacent to carcinoid tumor. The IPF cell line, LL97A, was purchased from the American Type Culture Collection (ATCC) (Manassas, Va.). Lung fibroblast lines were cultured in high-glucose DMEM or RPMI-1640 medium with 10% fetal bovine serum and 1% penicillin-streptomycin at 37° C. in a humidified atmosphere of 5% CO2. Fibroblasts were used between passages 4 and 8. Cells were characterized as fibroblasts as described^26.
Cells were seeded onto 96-well plates at a density of 5-10×10^3 cells per well and cultured for the indicated treatment. Cell proliferation was evaluated using a MTS assay kit (Promega, Madison, Wis.). Twenty microliters of the combined MTS/PMS solution was added into each well, incubated for 3 hours at 37° C., and the absorbance was measured at 490 nm by using an ELISA reader. For Trypan blue test, cells were plated on 12-well plates and treated with the indicated chemotherapeutic agents. After 72 hours, both attached and detached cells were collected and then stained with 0.2% trypan blue (0.1% final concentration), and the number of trypan blue-positive and -negative cells was counted using a haemocytometer under low-power microscopy. For colony-forming assays, 200 cells were seeded in each well of six-well plates. IPF-1 or IPF-2 primary cells were treated with peptides at the indicated concentrations for 10 days. Colonies were stained using 0.001% crystal violet and the number of colonies with a diameter greater than 0.5 mm was counted under an inverted microscope.

[2] = tested on: bleomycin-induced pulmonary fibrosis; assay: Bleomycin-induced pulmonary fibrosis; assay type: in vivo, C57BL/6J mice; details: 7 mg/kg i.p. every two days, against nintedanib (28 mg/kg) and MPS peptide (28 mg/kg)
Method: FIGS. 20A and 20B show suppressive effects of MPS peptide on pulmonary fibrosis in vivo. C57BL/6 mice were intraperitoneally given either PBS, nintedanib (28 mg/kg), MPS peptide (28 mg/kg) or MPS-12042 (7 mg/kg) at the dosage of every two days after 9 days of intratracheal exposure with one shot of saline or bleomycin (33 μg in […] of saline, n=5). (FIG. 20A) Representative Masson trichrome and immunohistochemical staining of phospho-MARCKS (Ser159/163) and phospho-AKT (Ser473) (n=6). (FIG. 20B) Hydroxyproline level in the left lung of mice as described above was determined by a hydroxyproline ELISA assay (mean±SD, *p<0.05).
MPS peptide potentially serves as an antifibrotic agent in bleomycin-induced pulmonary fibrosis. Bleomycin remains the standard agent for induction of experimental pulmonary fibrosis in animals^23. Thus, 8-week-old female C57BL/6J mice received saline or bleomycin intratracheally (33 μg in […] of saline) as previously described^23. Lung specimens from bleomycin- or saline-treated mice were collected and subjected to immunofluorescence staining. […] Next, lung fibroblast cells isolated from saline- or bleomycin-treated mice (two mice fibroblast cell lines were gifts from Dr. Sem H. Phan, University of Michigan School of Medicine, MI) were incubated with either 100 μM control or MPS peptide for 48 hours. […]

[3] = tested on: normal fibroblasts; assay: Normal lung fibroblast proliferation (MTS/MTT assay); assay type: cell-based, human; details: 1 μM
Method: as §1
Human primary fibroblast cells were obtained from airway tissues provided from the UC Davis Medical Hospital (Sacramento, Calif.) with consent. The protocol for human tissue procurement and usage were periodically reviewed and approved by the University Human Subject Research Review Committee. Primary fibroblast cell lines, IPF-1 and IPF-2 cells, were established from IPF patients. […]
Cells were seeded onto 96-well plates at a density of 5-10×10^3 cells per well and cultured for the indicated treatment. Cell proliferation was evaluated using a MTS assay kit (Promega, Madison, Wis.). Twenty microliters of the combined MTS/PMS solution was added into each well, incubated for 3 hours at 37° C., and the absorbance was measured at 490 nm by using an ELISA reader. […] After 72 hours, both attached and detached cells were collected and then stained with 0.2% trypan blue (0.1% final concentration), and the number of trypan blue-positive and -negative cells was counted using a haemocytometer under low-power microscopy. […]

[4] = tested on: H1650 cells; assay type: cell-based
Method: IC50 (half maximal inhibitory concentration; μM) values in lung cancer cells. […] The residues marked in red/bold are D-isoforms of amino acids (SEQ ID NOS: 57, 48-54, 40-42 45 and 47 in order of appearance).
Molecular basis of MPS peptide and its potential for increasing nintedanib efficacy. […] A kinetic assay confirmed that this peptide binds PIP2 with a dissociation constant of 17.64 nM (FIG. 10B). As expected, a decrease of PIP3 pools in whole cell lysates of MPS-treated IPF fibroblasts was observed (FIG. 10C), supporting the notion that MPS peptide is able to inhibit AKT activation through trapping PIP2. In view of adverse effects of the current IPF therapeutic nintedanib^9, 10, there is an urgent clinical need to improve the efficacy of such treatment in IPF. Since the TGF-β receptor is not a direct target of nintedanib, targeting an element of TGF-β signaling in tandem with nintedanib administration circumvents the shortcomings of nintedanib monotherapy. […] Based on the above observations, it is assumed that TGF-β-directed phospho-MARCKS is a bypass mechanism of activating PI3K/AKT signaling (FIG. 11B); therefore, it seems reasonable that MARCKS inhibition by MPS treatment may improve nintedanib efficacy, permitting lower doses of nintedanib to be used. To this end, the possibility of a synergistic interaction between MPS and nintedanib in order to circumvent the shortcomings of nintedanib monotherapy was tested. […] Furthermore, the Chou and Talalay CI (combination index) method^25 was used to evaluate the therapeutic interactions between nintedanib and MPS peptide. […] Particularly, the values were lower than 1 at ED50, approximately 1 at ED75, and above 1 at ED90 (data not shown). Thus, the combination effect was dose-dependently correlated with the components, and therefore low dose nintedanib in combination with low dose of MPS presents a synergistic effect on cell proliferation. […] On the basis of the sequences of MPS peptide, the rearrangement of PIP2-binding sites in this peptide were designed and synthesized with the intention of enhancing the efficacy and stability of the MPS peptide. FIG. 13 lists the sequences of various MPS derivatives. In light of the cleavage sites of various proteases and PIP2 binding motifs, Applicant replaced some L-isoform amino acids with D-isoform and these peptides were named as MPS-12042 and MPS-22026. To further validate the efficacy of the above MPS derivatives, Applicant performed a dose-course analysis of H1650 cells undergoing each MPS derivative treatment.

IC50 [4]: 6 µM
Compound: CC(C)C[C@@H](NC(=O)[C@@H](CCCCN)NC(=O)[C@@H](Cc1ccccc1)NC(=O)[C@H](C)NC(=O)[C@H](CCCCN)NC(=O)[C@@H](CCCCN)NC(=O)[C@@H](Cc1ccccc1)NC(=O)[C@H](C)NC(=O)[C@@H](Cc1ccccc1)NC(=O)[C@@H](CCCNC(=N)N)NC(=O)[C@H](CCCCN)NC(=O)[C@H](CCCCN)NC(=O)[C@H](CCCCN)NC(=O)[C@H](CCCCN)NC(=O)[C@@H](N)CCCCN)C(=O)N[C@@H](C)C(=O)NCC(=O)N[C@H](Cc1ccccc1)C(=O)N[C@H](C)C(=O)N[C@H](Cc1ccccc1)C(=O)N[C@H](CCCCN)C(=O)N[C@@H](CCCCN)C(=O)N[C@@H](CC(N)=O)C(=O)N[C@H](CCCCN)C(=O)N[C@@H](CCCCN)C(=O)O [MPS-12042] (H-KKKKK[dR][dF]A[dF][dK]KA[dF][dK][dL]AG[dF][dA][dF][dK]KN[dK]K-OH; N-terminus and C-terminus assumed)
decreased cell proliferation ([1]; 1 μM, IPF fibroblast): 50% | IC50 ([1]; 72 h): 1 to 1.5 µM | attenuating phospho-MARCKS and phospho-AKT, reducing overall fibrosis and extracellular matrix deposition in mouse lungs [2]: superior efficacy | decreased cell proliferation [3]: not in normal fibroblasts
